Patent US20260022097A1 (priority 2022, published 2026)
Like-named read-outs stand apart in the source and are kept apart here.

Key:
squirrel monkeys [1] = experiment: ventilatory ratio / respiratory effects in squirrel monkeys; format: in vivo
[2] = target: T1, delta-opioid receptor (DOR) (Homo sapiens, UniProt P41143); experiment: inhibition of forskolin-induced cAMP accumulation assay, DOR antagonist mode versus SNC80; format: cell-based; conditions: for IC50: read-out: DOR Antagonist IC50+/-SEM
T1 sequence (P41143 whole entry): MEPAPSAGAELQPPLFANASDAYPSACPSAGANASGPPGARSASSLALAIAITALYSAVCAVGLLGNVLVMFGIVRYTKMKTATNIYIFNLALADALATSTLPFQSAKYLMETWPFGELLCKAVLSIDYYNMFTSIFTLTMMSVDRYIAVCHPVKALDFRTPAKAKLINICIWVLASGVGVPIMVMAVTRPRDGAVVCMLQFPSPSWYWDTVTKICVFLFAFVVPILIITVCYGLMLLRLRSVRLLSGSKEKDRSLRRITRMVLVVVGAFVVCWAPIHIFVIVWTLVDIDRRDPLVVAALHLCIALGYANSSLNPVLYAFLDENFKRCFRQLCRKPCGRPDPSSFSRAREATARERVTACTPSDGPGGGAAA

MOR [3] = target: T2, MOR (Homo sapiens, UniProt P35372); experiment: GTP assay (G-protein activation) at MOR; format: biochemical
T2 sequence (P35372 whole entry): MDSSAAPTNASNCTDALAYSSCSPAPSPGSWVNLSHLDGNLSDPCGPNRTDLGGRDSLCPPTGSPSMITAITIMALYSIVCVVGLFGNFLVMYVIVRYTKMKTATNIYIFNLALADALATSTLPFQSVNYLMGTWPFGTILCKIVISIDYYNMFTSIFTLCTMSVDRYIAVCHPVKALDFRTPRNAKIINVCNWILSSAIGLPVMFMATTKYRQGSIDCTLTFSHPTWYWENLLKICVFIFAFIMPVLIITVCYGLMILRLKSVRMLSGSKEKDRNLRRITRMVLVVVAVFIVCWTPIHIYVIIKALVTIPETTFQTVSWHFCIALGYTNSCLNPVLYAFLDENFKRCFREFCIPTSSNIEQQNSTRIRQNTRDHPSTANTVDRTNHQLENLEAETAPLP

[4] = target: kappa-opioid receptor (KOR) (Homo sapiens, UniProt P41145); experiment: inhibition of forskolin-induced cAMP accumulation assay, KOR antagonist mode versus U50488H; format: cell-based; conditions: for IC50: read-out: KOR Antagonist IC50+/-SEM
kappa-opioid receptor (KOR), sequence (P41145 whole entry): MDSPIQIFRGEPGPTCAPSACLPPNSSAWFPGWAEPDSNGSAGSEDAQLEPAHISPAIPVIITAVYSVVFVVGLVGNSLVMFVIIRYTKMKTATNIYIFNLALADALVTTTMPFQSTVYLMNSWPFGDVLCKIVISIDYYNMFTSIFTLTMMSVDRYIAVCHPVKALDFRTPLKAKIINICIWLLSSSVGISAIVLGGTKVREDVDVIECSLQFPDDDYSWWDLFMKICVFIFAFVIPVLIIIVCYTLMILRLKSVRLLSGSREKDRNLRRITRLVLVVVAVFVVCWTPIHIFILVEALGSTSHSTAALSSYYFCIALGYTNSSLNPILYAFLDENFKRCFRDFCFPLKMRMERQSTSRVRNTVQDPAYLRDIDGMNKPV

mu-opioid receptor (MOR) = mu-opioid receptor (MOR) (Homo sapiens, UniProt P35372); experiment: cell-based; format: cell-based; conditions: for EC50: read-out: MOR Agonist EC50+/-SEM; for Emax: read-out: MOR Agonist % Emax+/-SEM
mu-opioid receptor (MOR), sequence (P35372 whole entry): as the sequence (P35372 whole entry) above

squirrel monkeys [5] = experiment: antinociceptive effects in vivo in squirrel monkeys
[6] = target: T1, delta-opioid receptor (DOR); experiment: inhibition of forskolin-induced cAMP accumulation assay, DOR agonist mode; format: cell-based; conditions: for EC50: read-out: DOR Agonist EC50+/-SEM; for Emax: read-out: DOR Agonist % Emax+/-SEM (converted)
MOR [7] = target: T2, MOR; experiment: binding affinity at MOR

SMILES | DOR Antagonist % Imax+/-SEM ([2]; normalized to naltrexone) [%] | IC50 ([2]; versus EC50 of SNC80) [nM] | KOR Antagonist % Imax+/-SEM ([4]; normalized to nor-BNI) [%] | IC50 ([4]; versus EC90 of U50488H) [nM] | EC50 (mu-opioid receptor (MOR)) [nM] | Emax (mu-opioid receptor (MOR)) [%] | EC50 [6] [nM] | other results
CC=C[C@H]1[C@H]2CCC[C@]1(c1cccc(O)c1)CCN2CCc1ccccc1 (stereo in doubt) [Compound 22, 3-((1R,5S,9R)-2-phenethyl-9-((E)-prop-1-en-1-yl)-2-azabicyclo[3.3.1]nonan-5-yl) phenol] | 143.3 ± 11.9 | 113 ± 19.8 | 111.6 ± 7.9 | 35 ± 9.72 | 2.61 |  |  | effect on ventilatory ratio (squirrel monkeys [1]): slightly lessor effects on ventilatory ratio; respiratory effects compared with morphine (squirrel monkeys [1]): lessor respiratory effects; Emax (MOR [3]): 18%; MOR Agonist % Emax+/-SEM (mu-opioid receptor (MOR)): 2.61 ± 0.64 (89.5 ± 2.9%); antinociceptive effects (squirrel monkeys [5]): had antinociceptive effects
CC=C[C@@H]1[C@H]2CCC[C@]1(c1cccc(O)c1)CCN2CCc1ccccc1 (stereo in doubt) [Compound 23, 3-((1R,5S,9S)-2-Phenethyl-9-((E)-prop-1-en-1-yl)-2-azabicyclo[3.3.1]nonan-5-yl) phenol] | 74.5 ± 2.3 |  | 114.8 ± 11.2 | 238 ± 52.6 | 0.07 | 101 | > 10000 | IC50 [2]: 9.69 ± 2.23 nM; MOR potency relative to morphine (mu-opioid receptor (MOR)): 30 fold
CC=C[C@H]1C2CCC[C@@]1(c1cccc(O)c1)CCN2CCc1ccccc1 (stereo in doubt) [Compound 26, 3-((1R,5R,9R)-2-Phenethyl-9-((E)-prop-1-en-1-yl)-2-azabicyclo[3.3.1]nonan-5-yl) phenol] | 142.5 ± 23.7 | 7.52 ± 2.93 | 126.7 ± 2.6 | 4.02 ± 0.25 |  |  |  | KOR antagonist (result in words) [4]: moderately potent KOR antagonist
CC=C[C@@H]1C2CCC[C@@]1(c1cccc(O)c1)CCN2CCc1ccccc1 (stereo in doubt) [Compound 27, 3-((1R,5R,9S)-2-Phenethyl-9-((E)-prop-1-en-1-yl)-2-azabicyclo[3.3.1]nonan-5-yl) phenol] |  |  | 111.8 ± 2.2 | 163 ± 37 | 4.66 | 57.5 | 60.5 ± 3.74 | Emax [6]: 66.7%
CCC=C[C@H]1[C@H]2CCC[C@]1(c1cccc(O)c1)CCN2CCc1ccccc1 (stereo in doubt) [Compound 29, 3-((1R,5S,9R)-9-((E)-but-1-en-1-yl)-2-phenethyl-2-azabicyclo[3.3.1]nonan-5-yl) phenol] | 166.6 ± 40.0 | 69 ± 4.83 | 109.5 ± 8.3 | 328 ± 96.9 | 11.6 | 95.8 |  | 
CCC=C[C@@H]1[C@H]2CCC[C@]1(c1cccc(O)c1)CCN2CCc1ccccc1 (stereo in doubt) [Compound 30, 3-((1R,5S,9S)-9-((E)-but-1-en-1-yl)-2-phenethyl-2-azabicyclo[3.3.1]nonan-5-yl) phenol] | 182.3 ± 56.4 | 3220 ± 572 | 103.8 ± 9.2 | 283 ± 46.4 | 14.8 | 89.8 |  | 
CCC=C[C@@H]1[C@@H]2CCC[C@@]1(c1cccc(O)c1)CCN2CCc1ccccc1 (stereo in doubt) [Compound 33, 3-((1S,5R,9S)-9-((E)-but-1-en-1-yl)-2-phenethyl-2-azabicyclo[3.3.1]nonan-5-yl) phenol] | 226.1 ± 14.0 | 520 ± 144 | 96.2 ± 0.9 | 12.2 ± 2.49 |  |  |  | 
CCC=C[C@H]1[C@@H]2CCC[C@@]1(c1cccc(O)c1)CCN2CCc1ccccc1 (stereo in doubt) [Compound 34, 3-((1S,5R,9R)-9-((E)-but-1-en-1-yl)-2-phenethyl-2-azabicyclo[3.3.1]nonan-5-yl) phenol] | 211.5 ± 24.7 | 8.22 ± 2.44 | 98.2 ± 2.3 | 0.79 ± 0.28 |  |  |  | DOR antagonist (result in words) [2]: potent DOR antagonist; KOR antagonist (result in words) [4]: moderately potent KOR antagonist
C=C[C@H]1[C@H]2CCC[C@]1(c1cccc(O)c1)CCN2CCc1ccccc1 [Compound 13, 3-((1R,5S,9R)-2-Phenethyl-9-vinyl-2-azabicyclo[3.3.1]nonan-5-yl) phenol] | 119.1 ± 15.5 | 113 ± 43.6 | 97.1 ± 9.2 | 74 ± 30.5 | 1.44 |  |  | effect on ventilatory ratio (squirrel monkeys [1]): decreased ventilatory ratio; Emax (MOR [3]): 20.1%; MOR Agonist % Emax+/-SEM (mu-opioid receptor (MOR)): 1.44 ± 0.48 (94.7 ± 3.1%); antinociceptive effects (squirrel monkeys [5]): had antinociceptive effects in vivo; Ki (MOR [7]): 0.5 nM
C=C[C@@H]1[C@H]2CCC[C@]1(c1cccc(O)c1)CCN2CCc1ccccc1 [Compound 14, 3-((1R,5S,9S)-2-Phenethyl-9-vinyl-2-azabicyclo[3.3.1]nonan-5-yl) phenol] |  |  | 101.8 ± 19.1 | 19.8 ± 9.71 | 2.12 | 67.3 | 57 ± 21.4 | effect on ventilatory ratio (squirrel monkeys [1]): without selective effects on ventilatory ratio; respiratory effects compared with morphine (squirrel monkeys [1]): lessor respiratory effects; Emax (MOR [3]): 10.5%; antinociceptive effects (squirrel monkeys [5]): antinociceptive effects in some, but not all animals; Emax [6]: 22.6%
C=C[C@@H]1[C@@H]2CCC[C@@]1(c1cccc(O)c1)CCN2CCc1ccccc1 [Compound 18, 3-((1S,5R,9S)-2-Phenethyl-9-vinyl-2-azabicyclo[3.3.1]nonan-5-yl) phenol] |  |  | 105.6 ± 4.6 | 128 ± 48.2 | 3.94 | 46.6 | 122 ± 47.1 | Emax [6]: 40.6%
C=C[C@H]1[C@@H]2CCC[C@@]1(c1cccc(O)c1)CCN2CCc1ccccc1 [Compound 19, 3-((1S,5R,9R)-2-Phenethyl-9-vinyl-2-azabicyclo[3.3.1]nonan-5-yl) phenol] |  |  |  |  |  |  |  | DOR Antagonist % Imax+/-SEM [2]: 143.65 ± 41.03 (201.4 ± 35.9%); DOR antagonist (result in words) [2]: weak DOR and KOR antagonist; IC50 [2]: 144 nM; KOR Antagonist % Imax+/-SEM [4]: 28.39 ± 4.24 (104.9 ± 11.2%); KOR antagonist (result in words) [4]: weak DOR and KOR antagonist; IC50 [4]: 28.4 nM
